Data on 39 compounds can be found in patent US20130116287A1 (priority 2010, published 2013).

Where “and” joins values, the source holds several entries; their conditions need not be identical. Equal entries are not always repeated.

The nature of data set [1]: Measurement of logP values by HPLC on reversed phase columns (EEC directive 79/831 Annex V.A8). The format is physicochemical. The conditions noted are these: HPLC; for Log P: pH 2.7, 0.1% formic acid in water / acetonitrile, single value.
The subject of data set [2] is Phytophthora infestans. In kind it is in vivo. Particulars: 500 ppm of active ingredient; tomato, preventive; evaluated 7 days after inoculation; 100% = no disease.
The subject of data set [3] is Plasmopara viticola. The data set is described as follows: Plasmopara test (grapevines) / preventive. The format is in vivo. The conditions noted are these: 100 ppm of active ingredient, evaluated 6 days after inoculation, 100% = no disease. As to the method: Plasmopara Test (Grapevines)/Preventive
Solvent: 24.5 parts by weight of acetone
24.5 parts by weight of dimethylacetamide
Emulsifier: 1 part by weight of alkylaryl polyglycol ether
To produce a suitable preparation of active compound, 1 part by weight of active compound is mixed with the stated amounts of solvent and emulsifier, and the concentrate is diluted with water to the desired concentration.
To test for preventive activity, young plants are sprayed with the preparation of active compound at the stated rate of application. After the spray coating has dried on, the plants are inoculated with an aqueous spore suspension of Plasmopara viticola and then remain for 1 day in an incubation cabinet at approximately 20° C. and a relative atmospheric humidity of 100%. The plant is subsequently placed for 4 days in a greenhouse at approximately 21° C. and a relative atmospheric humidity of approximately 90%. The plants are then misted and placed for 1 day in an incubation cabinet.
The test is evaluated 6 days after the inoculation. 0% means an efficacy which corresponds to that of the untreated control, while an efficacy of 100% means that no disease is observed.

Consider `Cc1snnc1C(=NOCc1cccc(NC(=O)CSc2ccccc2)n1)c1ccccc1` (mixture of isomers) [Example 6], for which the “Log P [I2] minor isomer” value in data set [1] (pH 2.7, 0.1% formic acid) worked out at 4.09. Moreover, the efficacy in data set [2] amounted to 98%; in data set [3], 86%.
As for `Cc1snnc1C(=NOCc1csc(NC(=O)COc2ccccc2)n1)c1ccccc1` (mixture of isomers) [Example 7], the “Log P (two values printed, isomers not assigned)” value in data set [1] (pH 2.7, 0.1% formic acid, two values without isomer tag) was 3.71 and 3.83. Moreover, the efficacy turned out to be 100% in data set [2] and 88% in data set [3].
As to `Cc1snnc1C(=NOCc1csc(NC(=O)COCc2ccccc2)n1)c1ccccc1` (mixture of isomers) [Example 28], the “Log P [I1] main isomer” value in data set [1] (pH 2.7, 0.1% formic acid, main isomer) was 3.96. For the same compound, the “Log P [I2] minor isomer” value in data set [1] (pH 2.7, 0.1% formic acid) was found to be 3.85. Further, the results for the efficacy in data set [2] and in data set [3] were 100% and 93%, respectively.
What is called Log P is a log measure of how a compound divides between an organic and an aqueous phase. High values mean higher lipophilicity, low ones lower lipophilicity. Take `CCOC(C)(C)C(=O)Nc1nc(CON=C(c2ccccc2)c2nnsc2C)cs1` [Example 61]: in data set [1], the “Log P” value worked out at 3.94. The compound also gave an efficacy in data set [2] of 100%.
Turning to `CCOC(C)(C)C(=O)Nc1cccc(CON=C(c2ccccc2)c2nnsc2C)n1` [Example 62], in data set [1], the “Log P” value turned out to be 4.34. In data set [2], this compound had an efficacy of 95%.
The like results for `Cc1snnc1C(=NOCc1cccc(NC(=O)COCC(C)C)n1)c1ccccc1` [Example 64] were, in that order, 4.44 and 98%.
In the case of `Cc1snnc1C(=NOCc1cccc(NC(=O)COC(C)C)n1)c1ccccc1` [Example 66], the “Log P” value in data set [1] worked out at 3.94. Besides, the efficacy in data set [2] was 93%.
The like results for `Cc1snnc1C(=NOCc1csc(NC(=O)CSCCC(C)C)n1)c1ccccc1` [Example 67] were, in that order, 4.41 and 95%.
The like results for `Cc1snnc1C(=NOCc1csc(NC(=O)COCC2CCCCC2)n1)c1ccccc1` [Example 69] were, in that order, 4.93 and 97%.
Turning to `Cc1snnc1C(=NOCc1cccc(NC(=O)COCC2CCCCC2)n1)c1ccccc1` [Example 70], in data set [1], the “Log P” value is reported as 5.45. The efficacy in data set [2] came to 89%.
`Cc1snnc1C(=NOCc1csc(NC(=O)COCC2CCCCO2)n1)c1ccccc1` (stereo not shown) [Example 71]: the “Log P” value in data set [1] was 3.76. This compound had an efficacy in data set [2] of 90%.
The corresponding values for `Cc1snnc1C(=NOCc1cccc(NC(=O)COCC2CCCCO2)n1)c1ccccc1` (stereo not shown) [Example 72] are 3.92 and 75%.
The corresponding values for `Cc1snnc1C(=NOCc1csc(NC(=O)C(C)OCC2CCCCC2)n1)c1ccccc1` (stereo not shown) [Example 73] are 5.35 and 100%.
The corresponding values for `Cc1snnc1C(=NOCc1cccc(NC(=O)C(C)OCC2CCCCC2)n1)c1ccccc1` (stereo not shown) [Example 74] are 5.87 and 94%.
`Cc1snnc1C(=NOCc1csc(NC(=O)C(C)OCC2CCCC2)n1)c1ccccc1` (stereo not shown) [Example 75]: in data set [1], the “Log P” value was found to be 4.9. Besides, in data set [2], the efficacy was determined as 100%.
As to `Cc1snnc1C(=NOCc1cccc(NC(=O)C(C)OCC2CCCC2)n1)c1ccccc1` (stereo not shown) [Example 76], the “Log P” value in data set [1] came out at 5.39. The compound further displayed an efficacy in data set [2] of 97%.
The like results for `Cc1snnc1C(=NOCc1csc(NC(=O)COCCC2CCCC2)n1)c1ccccc1` [Example 77] were, in that order, 4.91 and 95%.
The like results for `Cc1snnc1C(=NOCc1cccc(NC(=O)COCCC2CCCC2)n1)c1ccccc1` [Example 78] were, in that order, 5.39 and 89%.
The corresponding values for `Cc1snnc1C(=NOCc1csc(NC(=O)COCCC2CCCCC2)n1)c1ccccc1` [Example 83] are 5.28 and 95%.
In the case of `Cc1snnc1C(=NOCc1cccc(NC(=O)COCCC2CCCCC2)n1)c1ccccc1` [Example 84], in data set [1], the lipophilicity (Log P) is reported as 5.81. The compound further returned an efficacy in data set [2] of 75%.
With `Cc1snnc1C(=NOCc1csc(NC(=O)C(C)OCC(C)C)n1)c1ccccc1` (stereo not shown) [Example 85], the figures for the efficacy in data set [2] and in data set [3] were 95% and 73%, respectively.
On to `Cc1snnc1C(=NOCc1cccc(NC(=O)C(C)OCC(C)C)n1)c1ccccc1` (stereo not shown) [Example 86], for which, in data set [1], the lipophilicity (Log P) is 4.83. Moreover, the efficacy in data set [2] turned out to be 95%.
The like results for `Cc1snnc1C(=NOCc1csc(NC(=O)CSC2CCCCC2)n1)c1ccccc1` [Example 87] were, in that order, 4.46 and 97%.
As for `Cc1snnc1C(=NOCc1cccc(NC(=O)CSC2CCCCC2)n1)c1ccccc1` [Example 88], the log partition coefficient (Log P) in data set [1] came to 4.87. In data set [2], this compound showed an efficacy of 97%.
Turning to `C=CCSCC(=O)Nc1nc(CON=C(c2ccccc2)c2nnsc2C)cs1` [Example 91], the lipophilicity (Log P) in data set [1] worked out at 3.52. The efficacy in data set [2] was determined as 95%.
With `C=CCSCC(=O)Nc1cccc(CON=C(c2ccccc2)c2nnsc2C)n1` [Example 92], the lipophilicity (Log P) in data set [1] worked out at 3.79. Also, the efficacy in data set [2] was 90%.
For the compound `Cc1snnc1C(=NOCc1cccc(NC(=O)C(C)OCc2ccccc2)n1)c1ccccc1` (stereo not shown) [Example 94], the lipophilicity (Log P) in data set [1] was 4.58. This compound also showed an efficacy in data set [2] of 95%.
The corresponding values for `Cc1snnc1C(=NOCc1csc(NC(=O)C(C)Oc2ccc(F)cc2)n1)c1ccccc1` (stereo not shown) [Example 95] are 4.06 and 100%.
The corresponding values for `Cc1snnc1C(=NOCc1csc(NC(=O)C(C)SCc2ccccc2)n1)c1ccccc1` (stereo not shown) [Example 98] are 4.26 and 98%.
The corresponding values for `Cc1snnc1C(=NOCc1cccc(NC(=O)C(C)SCc2ccccc2)n1)c1ccccc1` (stereo not shown) [Example 99] are 4.58 and 100%.
For the compound `Cc1snnc1C(=NOCc1csc(NC(=O)C(C)(C)Oc2ccccc2)n1)c1ccccc1` [Example 102], in data set [1], the log partition coefficient (Log P) is 4.53. In addition, the efficacy in data set [2] is 100%.
The corresponding values for `Cc1snnc1C(=NOCc1cccc(NC(=O)C(C)(C)Oc2ccccc2)n1)c1ccccc1` [Example 103] are 4.93 and 100%.
The corresponding values for `C#CCOC(CC)C(=O)Nc1nc(CON=C(c2ccccc2)c2nnsc2C)cs1` (stereo not shown) [Example 104] are 3.61 and 98%.
The corresponding values for `C#CCOC(CC)C(=O)Nc1cccc(CON=C(c2ccccc2)c2nnsc2C)n1` (stereo not shown) [Example 105] are 3.9 and 95%.
Consider `Cc1snnc1C(=NOCc1csc(NC(=O)CSC2CCCC2)n1)c1ccccc1` [Example 106], for which the log partition coefficient (Log P) in data set [1] is 4.14. For the same compound, the efficacy in data set [2] is on record as 92%.
The corresponding values for `Cc1snnc1C(=NOCc1cccc(NC(=O)CSC2CCCC2)n1)c1ccccc1` [Example 107] are 4.51 and 92%.
The corresponding values for `Cc1snnc1C(=NOCc1csc(NC(=O)COCC2CCCC2)n1)c1ccccc1` [Example 108] are 4.53 and 100%.
The like results for `Cc1snnc1C(=NOCc1cccc(NC(=O)COCC2CCCC2)n1)c1ccccc1` [Example 109] were, in that order, 5.01 and 89%.
Consider `CC(=NOCC(=O)Nc1cccc(CON=C(c2ccccc2)c2nnsc2C)n1)c1ccccc1` [Example 112], for which, in data set [1], the lipophilicity (Log P) amounted to 4.51. In data set [2], this compound registered an efficacy of 95%.
